Key:
Aqueous solubility = type: physicochemical
Text: Table 5 presents the results.

[1] = Solvent properties (density, boiling point, flash point, freezing point, viscosity); type: physicochemical
Text: Isopropyl 2-hydroxy-4-(methylsulfinyl)butanoate (also called iC3SO) has the following properties.
Green or regular hard surface cleaner or degreaser formulations containing commercial surfactants or a mixture (i.e., monomers, dimers, and short oligomers) of octyl 2-hydroxy-4-(methylsulfinyl)butanoate (also called “C8SO”) were formulated, as shown in Table 2 below. The density of C8SO is 1.08 g/mL.

[2] = in water at 25° C. and atmospheric pressure

Solubility (wt/wt total) (Aqueous solubility; [2]) [wt %]	Solubility (wt/wt total) (Aqueous solubility; in water, marked *Theoretical) [% wt %]	SMILES	further results
>50.0	–	CCCCCCCCNC(=O)C(O)CC[S+](C)[O-] (centres unmarked) [2-Hydroxy-4-(Methylsulfinyl)-N-Octylbutanamide]	–
–	>50	CCCCOC(=O)C(O)CC[S+](C)[O-] (centres unmarked) [Butyl 2-Hydroxy-4-(Methylsulfinyl)Butanoate]	–
0.9	–	CCCCOC(=O)C(O)CCSC (centres unmarked) [Butyl 2-hydroxy-4-(methylthio)butanoate, Butyl 2-Hydroxy-4-(Methylthio)Butanoate]	–
<0.1	–	CCCCCCCCCCOC(=O)C(O)CCS(C)(=O)=O (centres unmarked) [Decyl 2-Hydroxy-4-(Methylsulfonyl)Butanoate]	–
>50.0	–	CCCCCCOC(=O)C(O)CC[S+](C)[O-] (centres unmarked) [Hexyl 2-Hydroxy-4-(Methylsulfinyl)Butanoate]	–
2.5	–	CSCCC(O)C(=O)OC(C)C (centres unmarked) [Isopropyl 2-hydroxy-4-(methylthio)butanoate]	–
–	>50	COC(=O)C(O)CC[S+](C)[O-] (centres unmarked) [Methyl 2-Hydroxy-4-(Methylsulfinyl)Butanoate]	–
>50.0	–	CCCCCCCCOC(=O)C(O)CC[S+](C)[O-] (centres unmarked) [Octyl 2-Hydroxy-4-(Methylsulfinyl)Butanoate]	–
–	>50	CC(C)OC(=O)C(O)CC[S+](C)[O-] (centres unmarked) [iC3SO, Isopropyl 2-hydroxy-4-(methylsulfinyl)butanoate]	Boiling Point [1]: 248° ° C.; Density [1]: 1.17 g/mL; Flash Point [1]: 194° ° C.; Freezing Point [1]: <−90° ° C.; Viscosity [1]: 519 cps
